Assay results published in ChEMBL document CHEMBL1153323, “Design, synthesis, and evaluation of peptidomimetics containing Freidinger lactams as STAT3 inhibitors” (Bioorg Med Chem Lett, 2009).
Where a SMILES comes first, the peptide text is derived from it. [ ]: non-standard residue; d: D form. The star is where a group is joined. pY = N[C@@H](Cc1ccc(OP(=O)(O)O)cc1)C(=O)O; Cbz = O=C(OCc1ccccc1)*; NHBn = c1ccc(CN*)cc1

target: Signal transducer and activator of transcription 3 (Homo sapiens, UniProt P40763); assay: Displacement of fluorescent tagged beta-(Ala)-beta-(Ala)-G-pYLPQTV from human recombinant STAT3 by fluorescence polarization assay
Sequence (P40763 whole entry): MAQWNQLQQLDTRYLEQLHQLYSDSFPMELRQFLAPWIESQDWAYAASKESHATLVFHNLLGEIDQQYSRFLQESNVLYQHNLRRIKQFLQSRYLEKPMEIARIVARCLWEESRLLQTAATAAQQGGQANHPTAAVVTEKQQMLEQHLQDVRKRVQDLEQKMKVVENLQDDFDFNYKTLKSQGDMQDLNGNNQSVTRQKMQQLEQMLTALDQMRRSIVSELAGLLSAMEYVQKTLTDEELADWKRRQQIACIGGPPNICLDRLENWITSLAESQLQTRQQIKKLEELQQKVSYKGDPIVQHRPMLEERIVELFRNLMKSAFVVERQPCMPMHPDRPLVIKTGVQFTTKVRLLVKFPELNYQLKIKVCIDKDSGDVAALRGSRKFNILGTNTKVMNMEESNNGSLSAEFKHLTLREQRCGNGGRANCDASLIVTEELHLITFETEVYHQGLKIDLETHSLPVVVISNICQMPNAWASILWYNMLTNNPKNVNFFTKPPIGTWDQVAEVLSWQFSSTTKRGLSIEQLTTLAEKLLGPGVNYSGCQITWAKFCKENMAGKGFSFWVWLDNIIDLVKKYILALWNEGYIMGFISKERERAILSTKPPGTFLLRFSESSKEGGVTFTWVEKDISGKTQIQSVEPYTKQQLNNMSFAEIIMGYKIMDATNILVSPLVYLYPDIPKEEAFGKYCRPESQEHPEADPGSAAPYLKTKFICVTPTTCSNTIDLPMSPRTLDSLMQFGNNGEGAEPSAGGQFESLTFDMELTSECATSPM

Going from NC(=O)CC[C@H](NC(=O)CN1CCCC[C@H](NC(=O)[C@H](Cc2ccc(OP(=O)(O)O)cc2)NC(=O)OCc2ccccc2)C1=O)C(=O)NCc1ccccc1 to NC(=O)CC[C@H](NC(=O)CN1CCC[C@H](NC(=O)[C@H](Cc2ccc(OP(=O)(O)O)cc2)NC(=O)OCc2ccccc2)C1=O)C(=O)NCc1ccccc1, the Ki rises from 190 nM to 3130 nM (16-fold). The first binds more tightly here.

CC(C)C[C@H](NC(=O)[C@H](Cc1ccc(OP(=O)(O)O)cc1)NC(=O)OCc1ccccc1)C(=O)N1CCC[C@H]1C(=O)N[C@@H](CCC(N)=O)C(=O)NCc1ccccc1 (Cbz-[pY]LPQ-NHBn) showed a Ki of 350 nM.
